The record followed here is patent publication US10287617B2, “Methods for in vitro—in vivo efficacy determination” (COLORADO STATE UNIVERSITY RESEARCH FOUNDATION, priority 2014, dated 2019).

For test [1], the system named is non-replicating M. tuberculosis H37Rv. Description: Low oxygen study, non-replicating bacilli. Format: cell-based, Mycobacterium tuberculosis. The following applies: for Log10 (CFU+/−SD): 96 h post-treatment; for % Growth Reduction: benzimidazoles at 4 μg/mL; for Log10 (CFU) Reduction: vs control. As to the method: The low oxygen studies were performed similar to those described previously (Lenaerts et al., Antimicrob. Agents Chemother. 2005; 49:2294-2301). Briefly, M. tuberculosis H37Rv were diluted to an O.D. 600 nm of 0.003 in 7H9 media containing Methylene Blue (1.5 μg/mL) and were grown in 16×125 mm Hungate tubes with rubber septa (VWR cat#89167-170). The tubes, with 11 mL of the diluted cultures were incubated at 37° C. under agitation (150 rpm). […] One week after the reduction of methylene blue, approximately 28 days from the start, drug treatment was initiated with the test and control drugs. Prior to treatment, an aliquot was removed and plated for a CFU count to serve as a control. Isoniazid and metronidazole were used in the studies as comparative controls.
Recovery of aliquots for plating and the addition of drugs were conducted through septa using syringes to maintain the low-oxygen conditions. Ninety-six hours post-treatment, 1 mL of the culture was removed from the oxygen depleted cultures, the aliquot was serial diluted and the dilutions were plated. Log10 CFUs were calculated for the different treatments and concentrations. Percentage growth reduction from the controls was calculated and reported.

In test [2] the test system is M. tuberculosis H37Rv. It counts as cell-based. The settings on record: for MIC Alone: drug alone.
The subject of test [3] is Mycobacteria tuberculosis. Description: MIC and drug response curve type (Tables A and B). It counts as cell-based, Mycobacterium tuberculosis. The settings on record: for Curve: drug response curve type; for MIC: in µg/mL. How it is done:
A drug concentration response curve can be generated by graphing the log10 drug concentrations (μg/mL) against the difference in growth between the drug-treated wells and control wells. See FIG. 3C, and FIG. 5 (entries for SB-P23D8 and SB-P26D9). A NREBA is indicative of bacteriostatic activity above the MIC.
(§1) Further analysis using the methods described herein was performed on the compounds found in Tables A and B (bold font compounds are shown in FIG. 11) resulting in the data found therein.
MIC values were determined for the benzimidazoles using a modified 96-well microplate Alamar Blue (resazurin) assay (MABA) (see Kumar et al., J. Med. Chem. 2011; 54:374-381; Collins and Franzblau, Antimicrob. Agents Chemother. 1997; 41:1004-1009). Dose response curves were generated from the MABA assay for compounds by graphing the log10 drug concentrations against the difference in growth between the drug-treated wells and control wells using GraphPad Prism Version 5.0d for Mac OS X (GraphPad Software, San Diego Calif., USA, www.graphpad.com). For time dose studies, bacterial growth in the presence of compound was monitored by the O.D. 600 nm. […] The values were plotted against time using GraphPad Prism Version 5.0d for Mac OS X (GraphPad Software, San Diego Calif., USA, www.graphpad.com).

Test [4] relates to M. tuberculosis H37Rv. Description: Growth inhibition / time dose curves (OD600 and CFU). Format: cell-based, Mycobacterium tuberculosis. The settings on record: O.D. 600 nm growth curves, 5 days.
Another test has as its system M. tuberculosis. Description: Benzimidazoles activity tested in animals (animal models of infection, Table A). It counts as in vivo, mouse. The following applies: for Efficacy Lung / Efficacy Spleen: Table A. As to the method:
as §1
Compound efficacy was assessed in two murine models of infection based on the short term model described previously (Lenaerts et al., Antimicrob. Agents Chemother. 2003; 47:783-785). All aerosol infections were performed using a Middlebrook aerosol generation devise (Glas-Col, Terre Haute, Ind.).

For test [5], the system named is M. tuberculosis H37Rv. Description: MIC / dose response by modified microplate Alamar Blue assay (MABA). The settings on record: for drug concentration response curve (kill curve) type: FIG. 3; for MIC range: H37Rv and Erdman strains. It counts as cell-based, Mycobacterium tuberculosis. For orientation: Alamar Blue is a resazurin reagent that responds to reducing activity.

Some results are limits rather than exact numbers.

Turning to `Cc1ncc([N+](=O)[O-])n1CCO` [Metronidazole, reference compound], in test [1], the “Log10 (CFU+/−SD)” value is listed as 4.83 ± 0.06, the “% Growth Reduction” value stood at 70% and the “Log10 (CFU) Reduction” value was 0.52.

Regarding `CO[C@H]1/C=C/O[C@@]2(C)Oc3c(C)c(O)c4c(O)c(c(/C=N/N5CCN(C)CC5)c(O)c4c3C2=O)NC(=O)/C(C)=C\C=C\[C@H](C)[C@H](O)[C@@H](C)[C@@H](O)[C@@H](C)[C@H](OC(C)=O)[C@@H]1C` [Rifampicin, reference compound], the “MIC In Combination” value with M. tuberculosis H37Rv [2] (SB-P8B2 with rifampicin) turned out to be 0.5 × MIC. The “MIC Alone” value against M. tuberculosis H37Rv [2] is 1 × MIC.

In the case of `CCN(CC)c1cc2[nH]c(C3CCCCC3)nc2cc1NC(=O)c1ccc(OC)cc1.O=C(O)/C=C/C(=O)O` [SB-P1G10-FUM], in test [3] (Table B), the Curve entry is “Zonal” and the MIC amounted to 6.25.

On to `CCN(CC)c1cc2[nH]c(C3CCCCC3)nc2cc1NC(=O)c1ccc(OC)cc1` [SB-P1G10], for which, in test [3] (Table A), the Curve result is listed as “Zonal” and the MIC is reported as 3.13-6.25. The “concentrations at which bacterial growth was inhibited” value in the test on M. tuberculosis H37Rv [4] was “none of the concentrations tested”. Also, in the test with M. tuberculosis, the “Efficacy Lung” value was “No” and the “Efficacy Spleen” value is recorded as “No”. Besides, the “bacterial load in the lungs or spleen” value with M. tuberculosis (any animal model of infection conducted) is “never reduced the bacterial load”. Also, in the test with M. tuberculosis H37Rv [5], the “drug concentration response curve (kill curve) type” value is given as “narrow range of concentrations of effective bactericidal activity (NREBA) kill curve” and the MIC range is 3 to 6.25 µg/mL. For the same molecule, the “concentration range of bactericidal activity” value in the test on M. tuberculosis H37Rv [5] (drug concentration response curve) is recorded as 0.5-4 fold of MIC.

Turning to `CCN(CC)c1cc2[nH]c(C3CCCCC3)nc2cc1NC(=O)c1ccc(N(C)C)cc1` [SB-P1G-A11], in test [3] (Table B), the Curve result is reported as “Zonal” and the MIC is listed as 12.5.

Turning to `CCN(CC)c1cc2[nH]c(C3CCCCC3)nc2cc1NC(=O)c1cnccn1` [SB-P1G-A12], in test [3] (Table B), the Curve result is “Zonal” and the MIC came to 12.5.

On to `CCc1ccc(C(=O)Nc2cc3nc(C4CCCCC4)[nH]c3cc2N(CC)CC)cc1` [SB-P1G-A17], for which, in test [3] (Table B), the Curve entry is on record as “Zonal” and the MIC is 1.56.

Turning to `C=Cc1cccc(C(=O)Nc2cc3nc(C4CCCCC4)[nH]c3cc2N(CC)CC)c1` [SB-P1G-A21], in test [3] (Table B), the Curve entry was “Zonal” and the MIC worked out at 25.

In the case of `CCCOCC(=O)Nc1cc2nc(C3CCCCC3)[nH]c2cc1N1CCCC1` [SB-P6B-A3], in test [3] (Table B), the Curve result was “Zonal” and the MIC is on record as 12.5.

Consider `CCCCOC(=O)Nc1cc2nc(C3CCCCC3)[nH]c2cc1N1CCCC1` [SB-P8B2], for which, in test [1], the “Log10 (CFU+/−SD)” value is given as 4.96 ± 0.18, the “% Growth Reduction” value came out at 59% and the “Log10 (CFU) Reduction” value is on record as 0.39. In the test with M. tuberculosis H37Rv [2] (SB-P8B2 with rifampicin), the “MIC In Combination” value was 0.1 × MIC, the “enhancement of activity in the presence of the other drug” value is 8 fold and the ΣFIC is on record as 0.63. For the same molecule, in the test with M. tuberculosis H37Rv [2], the “MIC Alone” value turned out to be 1 × MIC. Moreover, in test [3] (Table A), the Curve result is “Sigmoid” and the MIC result was “.625”. For the same molecule, the “concentrations at which bacterial growth was inhibited” value in the test on M. tuberculosis H37Rv [4] is above 0.31 µg/mL. Also, in the test with M. tuberculosis, the “Efficacy Lung” value was “Yes (.243)” and the “Efficacy Spleen” value was “No”. Further, in the test on M. tuberculosis H37Rv [5], the “drug concentration response curve (kill curve) type” value is given as “sigmoidal kill curves” and the MIC range fell in the range of 0.39 to 0.78 µg/mL.

Regarding `COc1ccc(C(=O)Nc2cc3nc(C4CCCCC4)[nH]c3cc2N(C)C)cc1` [SB-P17G-A16], in test [3] (Table A), the Curve result was “Sigmoid” and the MIC entry is reported as “.31”. For the same molecule, in the test on M. tuberculosis, the “Efficacy Lung” value is “Yes” and the “Efficacy Spleen” value is listed as “Yes”.

Consider `CN(C)c1cc2[nH]c(C3CCCCC3)nc2cc1NC(=O)OCc1ccccc1` [SB-P17G-C4], for which, in test [3] (Table B), the Curve entry is listed as “Zonal” and the MIC is 12.5.

Regarding `COc1ccc(C(=O)Nc2cc3nc(C4CCCCC4)[nH]c3cc2Oc2ccc(F)cc2)cc1` [SB-P23D8], in test [3] (Table B), the Curve entry is recorded as “Zonal” and the MIC amounted to 3.13.

In the case of `Cc1ccc(C(=O)Nc2cc3nc(C4CCCCC4)[nH]c3cc2Oc2ccc(F)cc2)cc1` [SB-P26D9], in test [3] (Table B), the Curve result is on record as “Zonal” and the MIC is reported as 1.56.

For the molecule `CC(C)(C)c1ccc(C(=O)Nc2cc3nc(C4CCCCC4)[nH]c3cc2Sc2ccccc2)cc1` [SB-P26F8], in test [3] (Table B), the Curve entry was “Zonal” and the MIC is 25.

`Cc1ccc(C(=O)Nc2cc3nc(C4CCCCC4)[nH]c3cc2Sc2ccccc2)cc1` [SB-P26F9]: in test [3] (Table B), the Curve entry is on record as “Zonal” and the MIC was 6.25.

Consider `CC(C)(C)c1ccc(C(=O)Nc2cc3nc(C4CCCCC4)[nH]c3cc2SCc2ccccc2)cc1` [SB-P26H8], for which, in test [3] (Table B), the Curve entry is listed as “Zonal” and the MIC is listed as 25.

As to `Cc1ccc(C(=O)Nc2cc3nc(Cc4ccccc4)[nH]c3cc2N(C)C)cc1` [SB-P27A9], in test [3] (Table B), the Curve result is listed as “Zonal” and the MIC amounted to 12.5.

Turning to `CCC(CC)c1nc2cc(NC(=O)c3ccccc3OC)c(N(C)C)cc2[nH]1` [SB-P27C7], in test [3] (Table B), the Curve result is “Zonal” and the MIC is reported as 6.25.

Take `CCCN(CCC)c1cc2[nH]c(C3CCCCC3)nc2cc1NC(=O)OCCOCC` [SB-oli-C8]: in test [3] (Table B), the Curve entry is recorded as “Zonal” and the MIC is listed as 6.25.

Regarding `O=C(Nc1cc2nc(C3CCCCC3)[nH]c2cc1N1CCCC1)OCc1ccccc1` [SBP8B4], in test [3] (Table A), the Curve result is recorded as “Sigmoid” and the MIC is reported as 3.13. Moreover, in the test with M. tuberculosis, the “Efficacy Lung” value is given as “None” and the “Efficacy Spleen” value was “None”.
